# From patent publication US20080199855A1, “Identification And Characterization Of A Subset of Glioblastomas Sensitive To Treatment With Imatinib” (priority 2004, published 2008)
# How the values were obtained:
# GBM culture 38 = experiment: cells; details: Homo sapiens, 96 h, read-out: growth inhibition (% reduction of increase in cell number)
# ERK = experiment: Compound I-induced change in ERK phosphorylation in GBM cultures (immunoblotting); type: cell-based, human; details: 10 GBM cultures; 1 μM compound I for 1 h; 10% FCS
# Description: (§1) Glioblastoma cell cultures were confluently plated in 12-well plate wells (Falcon). […] Samples, with normalized protein content, were subjected to SDS-PAGE using 12% gels. Control lysates from un-stimulated and PDGF-BB-stimulated PAE/Rβ cells were loaded on each gel. Samples were electrophoretically transferred to Hydrobond-C-Extra filters (Amersham Life Science). For detection of phosphorylated forms of ERK and Akt, filters were blocked for 1 h in Tris buffered saline pH 7.6 (TBS), 0.137 M NaCl and 0.0035 M Tris-HCl, containing 5% BSA, and incubated over night with 1 μg/ml anti phospho-p44/42 MAPK Thr202/Tyr204 (Cell Signaling Technology) or 1 μg/ml anti phospho-Akt Ser473 (Cell Signaling Technology) in TBS with 0.001% Tween-20 (TTBS). After three 10 min washes in TTBS, the filters were incubated for 1 h with horseradish peroxidase coupled sheep anti-rabbit antibody (Amersham Life Science) diluted 1:25000, and washed three times 10 min in TTBS. The antigens were detected using the Lumi-Light plus western blotting substrate (Roche) according to the manufacturer's instruction with an Intelligent Darkbox II digital scanner (FUJIFILM). […] Values were quantified by using the AIDA software version 3.10.039 (FUJIFILM). The relative expression and phosphorylation of ERK and Akt in the different GBM cultures, was determined by using the reference samples from the PAE/Rβ cells.
# GBM culture 45 = experiment: cells; details: Homo sapiens, 96 h, read-out: growth inhibition (% reduction of increase in cell number)
# GBM culture 7 = experiment: cells; details: Homo sapiens, 96 h, read-out: growth inhibition (% reduction of increase in cell number)
# GBM culture 11 = experiment: cells; details: Homo sapiens, 96 h, read-out: growth inhibition (% reduction of increase in cell number)
# GBM culture 27 = experiment: cells; details: Homo sapiens, 96 h, read-out: growth inhibition (% reduction of increase in cell number)
# GBM culture 9 = experiment: cells; details: Homo sapiens, 96 h, read-out: growth inhibition (% reduction of increase in cell number)
# GBM culture 34 = experiment: cells; details: Homo sapiens, 96 h, read-out: growth inhibition (% reduction of increase in cell number)
# GBM culture 6 = experiment: cells; details: Homo sapiens, 96 h, read-out: growth inhibition (% reduction of increase in cell number)
# GBM culture 13 = experiment: Growth inhibition induced by compound I, GBM culture 13; details: Homo sapiens, 96 h, read-out: growth inhibition (% reduction of increase in cell number)
# GBM culture 30 = experiment: cells; details: Homo sapiens, 96 h, read-out: growth inhibition (% reduction of increase in cell number)
# GBM culture 8 = experiment: cells; details: Homo sapiens, 96 h, read-out: growth inhibition (% reduction of increase in cell number)
# GBM culture 18 = experiment: cells; details: Homo sapiens, 96 h, read-out: growth inhibition (% reduction of increase in cell number)
# GBM culture 31 = experiment: cells; details: Homo sapiens, 96 h, read-out: growth inhibition (% reduction of increase in cell number)
# GBM culture 21 = experiment: cells; details: Homo sapiens, 96 h, read-out: growth inhibition (% reduction of increase in cell number)
# Akt = experiment: Compound I-induced change in Akt phosphorylation in GBM cultures (immunoblotting); type: cell-based, human; details: 10 GBM cultures; 1 μM compound I for 1 h; 10% FCS
# Description: as §1
# GBM culture 5 = experiment: cells; details: Homo sapiens, 96 h, read-out: growth inhibition (% reduction of increase in cell number)
# GBM culture 35 = experiment: cells; details: Homo sapiens, 96 h, read-out: growth inhibition (% reduction of increase in cell number)
smiles,measurement,setting,value
Cc1ccc(NC(=O)c2ccc(CN3CCN(C)CC3)cc2)cc1Nc1nccc(-c2cccnc2)n1 [compound I],inhibition at 1 µM,GBM culture 38,< 15%
same,compound I-induced change in specific phosphorylation of ERK,ERK,only moderate changes
same,inhibition at 1 µM,GBM culture 45,> 40%
same,inhibition at 1 µM,GBM culture 7,> 40%
same,inhibition at 1 µM,GBM culture 11,> 40%
same,inhibition at 1 µM,GBM culture 27,20 to 40%
same,inhibition at 1 µM,GBM culture 9,> 40%
same,inhibition at 1 µM,GBM culture 34,< 15%
same,inhibition at 1 µM,GBM culture 6,> 40%
same,inhibition at 1 µM,GBM culture 13,20 to 40%
same,inhibition at 1 µM,GBM culture 30,< 15%
same,inhibition at 1 µM,GBM culture 8,20 to 40%
same,inhibition at 1 µM,GBM culture 18,< 15%
same,inhibition at 1 µM,GBM culture 31,> 40%
same,inhibition at 1 µM,GBM culture 21,< 15%
same,compound I-induced change in specific phosphorylation of Akt,Akt,only moderate changes
same,inhibition at 1 µM,GBM culture 5,< 15%
same,inhibition at 1 µM,GBM culture 35,< 15%
